Experimental data: patent US10519452B2, “Antiviral agent comprising RNA oligonucleotide” (priority 2015, dated 2019)
Like-named read-outs stand apart in the source and are kept apart here. Oligonucleotides are written 5' to 3', each unit as a sugar letter and its base; * is a phosphorothioate linkage, no mark a phosphodiester; rarer units and linkages stand in square brackets, end groups in braces. Plain capitals give the bases only. {PPP} = triphosphate group; r = 2'-OH (RNA)

What was measured:
Type in all cases: cell-based
ISG56 = settings: for change in ISG56 expression: same method as Experimental Example 1, real-time PCR vs GAPDH, FIGS. 5 to 8
[1] = tested on: influenza A virus/Puerto Rico/8/34(H1N1)(PR8)
[2] = tested on: influenza A virus/Puerto Rico/8/34(H1N1)(PR8); remark: listed apart in the source
interferon-β = settings: HEK293T cells, 1 μM RNA oligonucleotide with lipofectamine LTX, real-time PCR vs GAPDH; FIG. 3 and FIG. 4
[3] = A549 cells infected with influenza A virus, FIG. 10 and FIG. 11

In the case of “5′-OH-8 bp-Bend-GC-Minimum: Minimum-length double-stranded RNA of SEQ ID NO:3 and SEQ ID NO:4, each with a 5′-hydroxy group (chain 1 GGUAGACG; chain 2 CGUUUGCC; RNA, backbone not given here; 5'-hydroxy ends)”, the “change in ISG56 expression” value (ISG56) is reported as “increased the ISG56 expression to a significant level”.

“5′-OH-16mer-Double Bend: Double strands of two base sequences of SEQ ID NO:18, each with a 5′-hydroxy group; palindromic, two helical bend structures (chain 1 GGUAGACGCGUUUGCC; chain 2 GGUAGACGCGUUUGCC; sugars by position and backbone not given here; 5'-hydroxy ends, palindromic duplex)” was tested, and the “change in ISG56 expression” value (ISG56) was “increased the ISG56 expression to a significant level”.

In the case of “5′-OH-Bend-GC-8 bp-PS: 5′-OH-Bend-GC-8 bp RNA oligonucleotide with phosphodiester bonds substituted with phosphorothioate bonds (rG*rG*rU*rA*rG*rA*rC*rG*rU*rU*rC*rG*rC*rG*rU*rU*rU*rG*rC*rC; 5'-hydroxy, hairpin)”, the “change in ISG56 expression” value (ISG56) is reported as “increased the ISG56 expression to a significant level”, the “antiviral activity against influenza A virus (Western blot of viral NP and NS1)” value [1] is reported as “showed antiviral activity against influenza A virus in a concentration-dependent manner” and the “antiviral activity against influenza A virus (plaque assay, titer of viruses)” value [2] is reported as “showed antiviral activity against influenza A virus in a concentration-dependent manner”.

“5′-OH-Bend-GC-8 bp: Shorter hairpin RNA composed of the base sequence of SEQ ID NO:10 with a hydroxy group at the 5′-end (GGUAGACGUUCGCGUUUGCC; RNA, phosphodiester; 5'-hydroxy, hairpin)” was tested, and the “change in interferon-β expression” value (interferon-β) was “increased the interferon-β expression to a significant level”.

“5′-OH-Bend-GC: RNA oligonucleotide composed of the base sequence of SEQ ID NO:8 with a hydroxy group at the 5′-end (GGUAGACGCGCGCGUUCGCGCGCGCGUUUGCC; RNA, backbone not given here; 5'-hydroxy, hairpin)” was tested, and the “change in interferon-β expression” value (interferon-β) was “increased the interferon-β expression to a significant level”.

In the case of “5′-OH-iav: RNA oligonucleotide composed of the base sequence of SEQ ID NO:6 with a hydroxy group at the 5′-end (GAGUAGAAACAAGGCUUCGGCCUGCUUUUGCUC; RNA, backbone not given here; 5'-hydroxy)”, the “change in interferon-β expression” value (interferon-β) is reported as “increase the expression of interferon-β and ISG56” and the “change in ISG56 expression” value (ISG56) is reported as “increase the expression of interferon-β and ISG56”.

In the case of “5′-PPP-iav: RNA oligonucleotide composed of the base sequence of SEQ ID NO:6 with a triphosphate group at the 5′-end (GAGUAGAAACAAGGCUUCGGCCUGCUUUUGCUC; RNA, 5' {PPP}, backbone not given here)”, the “change in interferon-β expression” value (interferon-β) is reported as “increase the expression of interferon-β and ISG56” and the “change in ISG56 expression” value (ISG56) is reported as “increase the expression of interferon-β and ISG56”.

B1: 5′-OH-Long_Bend: Long-length RNA oligonucleotide composed of the base sequence of SEQ ID NO:19 with a hydroxy group at the 5′-end (nucleic acid)
chain: GGUAGACGAAACCAGAUAAAAAAAAAAAAAAAAAAAAAAAAAAUAAUUUUUUUUUUUUUUUUUUUUUUUUUUAUCUGGUUUCGUUUGCC
modifications: RNA, phosphodiester; 5'-hydroxy
In the case of B1, the “change in ISG56 expression” value (ISG56) is reported as “increased the ISG56 expression to a significant level”, the “concentration at which expression of viral protein was significantly inhibited (Western blot)” value [1, 3] is reported as no less than 10 nM and the “antiviral effect at low concentration compared with positive control (Western blot)” value ([1]; A549 cells, 10 nM, positive control 0.1 μg/ml poly I:C, FIG. 9A) is reported as “excellent effect corresponding to the positive control group (poly I:C)”. For the same molecule, the “antiviral activity against influenza A virus (Western blot of viral NP and NS1)” value ([1]; A549 cells, 10, 30 or 100 nM, transfected 24 h before infection at 0.1 MOI, FIG. 9A) was “showed antiviral activity against influenza A virus in a concentration-dependent manner”, the “antiviral effect at low concentration compared with positive control (plaque assay)” value ([2]; A549 cells, 10 nM, positive control 0.1 μg/ml poly I:C, FIG. 9B) was “excellent effect corresponding to the positive control group (poly I:C)” and the “antiviral activity against influenza A virus (plaque assay, titer of viruses)” value ([2]; A549 cells, 10, 30 or 100 nM, titer on MDCK cells, FIG. 9B) was “showed antiviral activity against influenza A virus in a concentration-dependent manner”.

B2: 5′-OH-Long_Bend-BPS: 5′-OH-Long_Bend RNA oligonucleotide with part of phosphodiester bonds substituted with phosphorothioate bonds (nucleic acid)
chain: B1 chain
modifications: RNA, backbone not given here; 5'-hydroxy, partial phosphorothioate
B2 was tested, and the “increase in the ISG56 expression as compared to 5′-OH-Bend-GC-8 bp” value (ISG56; FIG. 8) was “about 7 fold”, the “change in ISG56 expression” value (ISG56) was “increased the ISG56 expression to a significant level” and the “concentration at which expression of viral protein was significantly inhibited (Western blot)” value [1] was no less than 1 nM.

B3: 5′-OH-Long_Bend Short: RNA oligonucleotide composed of the base sequence of SEQ ID NO:20 with a hydroxy group at the 5′-end (nucleic acid)
chain: GGUAGACGAAAAAAAAAAAAAAAAAAAAAAAAAAUAAUUUUUUUUUUUUUUUUUUUUUUUUUUCGUUUGCC
modifications: RNA, backbone not given here; 5'-hydroxy
With B3 the “concentration at which expression of viral protein was significantly inhibited (Western blot)” value [1, 3] was 100 nM.

B4: 5′-OH-Int-NS1: RNA oligonucleotide composed of the base sequence of SEQ ID NO:7 with a hydroxy group at the 5′-end (nucleic acid)
chain: AGUAGAAACAAGGGUGUUUUUUAUUAUUAAAUAAGCUGAAGUGUUUGGAUCCAUUAUGUCUUUGUCACCCUGCUUUUGCU
modifications: RNA, backbone not given here; 5'-hydroxy
B4 was tested, and the “change in interferon-β expression” value (interferon-β) was “increased the interferon-β expression to a significant level”.
